Patent US11723359B2, “Disposable antimicrobial wipes and methods of making” (Ecolab USA Inc., priority 2015, dated 2023)

Legend:
[1] = pH of citric acid and acetic acid at varying concentrations; type: physicochemical
Experimental: Wipes were prepared as described in Example 1 above. Citric acid at concentrations of Oppm, 500 ppm, 1000 ppm, 2000 and 4000 ppm were separately applied to the Tencel® substrates along with Bardac 205 quaternary ammonium. The wipes were prepared in duplicate. The organic acid and quaternary ammonium chemicals were added to the textile simultaneously. The following is a table showing the pH of citric acid and acetic acid at varying concentrations: […]

[2] = Squeeze method: expression of quaternary ammonium from treated Tencel wipes, quantified by HPLC; type: physicochemical; settings: Example 3, FIG. 4, citric acid 0, 500, 1000, 2000, 4000 ppm with Bardac 205 on Tencel, 24 hours soak
Experimental: Wipes were prepared as described in Example 1 above. […] The wipes were prepared in duplicate. The organic acid and quaternary ammonium chemicals were added to the textile simultaneously.

**Q.** For `CC(=O)O` [Acetic Acid, acetic acid], which pH ([1]; concentration 10 ppm) is on record?
**A.** 2.69

**Q.** And the pH ([1]; concentration 50 ppm)?
**A.** 2.62

**Q.** What about the pH ([1]; concentration 500 ppm) of the same compound?
**A.** 2.56

**Q.** Which results are given for `O=C(O)CC(O)(CC(=O)O)C(=O)O` [Citric Acid, citric acid]?
**A.** pH ([1]; concentration 10 ppm): 2.48; pH ([1]; concentration 50 ppm): 2.58; pH ([1]; concentration 500 ppm): 2.65

**Q.** With alkyl dimethyl benzyl ammonium chloride as the compound, how does the “release of dimethyl benzyl ammonium chloride from wipe” value [2] read?
**A.** As the citric acid concentration increased, the amount of quaternary ammonium released also increased
